Reference: the CheMixHub viscosity set

Assay: xn = mol fraction of the nth substance listed

C1CCOC1 + O
viscosity [mPa·s]
Settings | 303.15 K | 308.15 K | 313.15 K | 318.15 K | 323.15 K
101 kPa, x1 = 0.02 | – | 0.9079 | – | – | –
101 kPa, x1 = 0.05 | – | 1.124 | – | – | –
101 kPa, x1 = 0.07 | – | 1.227 | – | – | –
101 kPa, x1 = 0.2 | 1.504 | – | – | – | –
101 kPa, x1 = 0.2199 | 1.466 | – | – | – | –
101 kPa, x1 = 0.25 | 1.395 | – | – | – | –
101 kPa, x1 = 0.2701 | 1.358 | – | – | – | –
101 kPa, x1 = 0.3002 | 1.281 | – | – | – | –
101 kPa, x1 = 0.3499 | 1.174 | – | – | – | –
101 kPa, x1 = 0.3999 | 1.056 | – | – | – | –
101 kPa, x1 = 0.4499 | 0.9408 | – | – | – | –
101 kPa, x1 = 0.5001 | 0.8597 | – | – | – | –
101 kPa, x1 = 0.5998 | 0.7127 | – | – | – | –
101 kPa, x1 = 0.7001 | 0.6034 | – | – | – | –
101 kPa, x1 = 0.8001 | 0.5252 | – | – | – | –
101 kPa, x1 = 0.9 | 0.4699 | – | – | – | –
101.33 kPa, x1 = 0.0971 | 1.444 | 1.256 | – | 0.9839 | 0.8801
101.33 kPa, x1 = 0.1497 | 1.523 | 1.329 | 1.171 | 1.041 | 0.9355
101.33 kPa, x1 = 0.2011 | 1.477 | 1.301 | 1.154 | 1.037 | 0.9367
101.33 kPa, x1 = 0.3057 | 1.257 | 1.12 | 1.01 | 0.9172 | 0.8382
101.33 kPa, x1 = 0.3979 | 1.04 | 0.9414 | 0.8555 | 0.7829 | 0.7216
101.33 kPa, x1 = 0.4978 | 0.8602 | 0.7881 | 0.724 | 0.6687 | 0.621
101.33 kPa, x1 = 0.6026 | 0.7189 | 0.6666 | 0.6175 | 0.576 | 0.5365
101.33 kPa, x1 = 0.7025 | 0.6137 | 0.5723 | 0.5361 | 0.5036 | 0.4716
101.33 kPa, x1 = 0.8003 | 0.5413 | 0.5085 | 0.4788 | 0.452 | 0.4277
101.33 kPa, x1 = 0.8978 | 0.4813 | 0.4554 | 0.4306 | 0.4089 | 0.3879
